What all share (assay): inhibition of tumour cell growth, NCI panel, 48 h
The test system of assay [1] is HCC-2998 colon.
For assay [2], the system named is CCRF-CEM leukemia.
Assay [3] concerns SK-MEL-5 melanoma.
The test system of assay [4] is U251 CNS.
The test system of assay [5] is HS 578T breast.
Assay [6] has as its system MALME-3M melanoma.
For assay [7], the system named is LOX IMVI melanoma.
Assay [8] deals with SN12C renal.
The test system of assay [9] is HL-60(TB) leukemia.
The subject of assay [10] is A498 renal.

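Values below derive from 48-hour exposures of cells grown in 96-well plates, with endpoints linearly interpolated between the two concentrations bracketing the appropriate inhibition level. The concentration for 50% growth inhibition is given as GI50. The concentration for full growth arrest is given as TGI.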

Take `CCCCNC(=O)Oc1ccc(/C(=C(/CC)Cc2ccccc2)c2ccc(OCCN3CCCCCC3)cc2)cc1`: the GI50 in assay [1] was 18.8 µM; in assay [2] it was 31.9 µM; in assay [3], 19.9 µM; in assay [4] it was 18.7 µM; in [5] it was 19.7 µM; in assay [6], 18.2 µM. Besides, the GI50 in assay [7] was 17 µM; in assay [8], 29.6 µM; in assay [9] it was 16.5 µM. Further, the TGI was found to be 38.8 µM in [1]; 93.5 µM in assay [2]; 39.1 µM in [3]; 35 µM in assay [4]; 44.1 µM in assay [5]; 35.3 µM in [6]. For the same molecule, the results for the TGI in assay [7], in [8] and in assay [9] were 30.7 µM, 83.6 µM and 40 µM, respectively.
`CC(=O)c1cccc(-c2cccc(-c3ccn(CCN4CCOCC4)n3)c2)c1`: the GI50 in [1] was above 20 µM; in [2], above 20 µM; in assay [3], 11.6 µM; in assay [4], above 20 µM; in [5], above 20 µM; in assay [7] it was above 20 µM. The GI50 in assay [10] was 14.5 µM; in [8], above 20 µM; in assay [9], above 20 µM. Besides, the TGI in [1], in assay [2], in assay [3], in assay [4], in [5] and in assay [7] was above 20 µM in each case. Also, the TGI in assay [10], in [8] and in [9] was above 20 µM throughout.
As to `O=C(O)c1cccc(/C=C/c2ccccc2)c1`, the TGI in assay [2], in assay [3], in assay [4], in assay [5], in assay [6] and in [7] was above 100 µM in each case. Also, the TGI in [10] and in [8] was above 100 µM in each case.
In the case of `C[C@]12CC[C@@H](OC(=O)N(CCCl)N=O)C[C@@H]1CC[C@@H]1[C@@H]2CC[C@]2(C)C(=O)CC[C@@H]12`, the GI50 is 2.77 µM in assay [1]; 14.2 µM in [2]; 3.93 µM in assay [3]; 0.851 µM in assay [4]; 3.04 µM in [5]; 18.1 µM in [6]. The results for the GI50 in assay [7], in assay [10] and in assay [8] were 5.6 µM, 1.68 µM and 8.01 µM, respectively. Moreover, the TGI in assay [1] was 9.43 µM; in [2], above 100 µM; in assay [3], 19.5 µM; in assay [4] it was 15.7 µM; in assay [5], 17.9 µM; in assay [6], 50.2 µM. For the same molecule, the TGI is 22.1 µM in assay [7], 4.29 µM in [10] and 23.3 µM in [8].
As to `COC(=O)c1ccc2c(c1)C(=O)c1c-2n(CCCN)c(=O)c2cc(OC)c(OC)cc12`, the GI50 in assay [1] is 11.9 µM; in assay [2] it was 3.78 µM; in [3] it was 17.4 µM; in [4], 16 µM; in assay [5] it was 18.5 µM; in assay [6], 18.7 µM. Further, the GI50 in [7] was 14.6 µM; in [10] it was 17.4 µM; in assay [8] it was 14.9 µM. In addition, the TGI in [1] was 25.9 µM; in assay [2] it was 10.2 µM; in assay [3], 34.3 µM; in [4], 32.1 µM; in [5], 42.1 µM; in [6] it was 45.7 µM. For the same molecule, the figures for the TGI in assay [7], in assay [10] and in [8] were 32 µM, 36.2 µM and 31.4 µM, respectively.
Consider `CN1c2ccccc2S(=O)(=O)n2c(CCc3ccccc3)nnc21`, for which the TGI in assay [1], in assay [2], in assay [3], in assay [4], in [5] and in [7] was above 100 µM in each case. For the same molecule, the TGI in [10], in assay [8] and in assay [9] was above 100 µM in each case.
Take `Cc1nn(CNc2ccccc2C(F)(F)F)c(=S)n1/N=C/c1ccc(F)cc1`: the GI50 in [1] is above 100 µM; in assay [2], 14.2 µM; in assay [3], above 100 µM; in [5] it was 72.3 µM; in assay [6] it was above 100 µM; in assay [7], above 100 µM. In addition, the GI50 is above 100 µM in assay [10] and 91.9 µM in assay [9]. For the same molecule, the TGI in assay [1], in assay [2], in assay [3], in assay [5], in assay [6] and in assay [7] was above 100 µM in each case. Moreover, the TGI in assay [10] and in assay [9] was above 100 µM each time.
In the case of `Cc1ccc2sc3ccc(N)cc3c(=O)c2c1`, the TGI in assay [1], in assay [2], in [3], in assay [4], in assay [5] and in assay [7] was above 100 µM in each case. The TGI in assay [10], in assay [8] and in assay [9] was above 100 µM each time.
For `C/C=C(/C)c1cnc(CC(C)C)c(=O)[nH]1`, the TGI in assay [1], in assay [2], in [3], in assay [4], in [5] and in assay [7] was above 100 µM each time. The TGI in assay [10] and in assay [8] was above 100 µM in each case.
In the case of `CCCCN(CC)c1ncnc2ccc(Br)cc12`, the GI50 in assay [1] was 20.5 µM; in assay [2], 19 µM; in assay [3] it was 16.1 µM; in [4], 18.2 µM; in assay [5] it was 13.1 µM; in [6], 19.1 µM. The GI50 is 17.9 µM in assay [7], 10.2 µM in assay [10] and 18.8 µM in assay [8]. Moreover, the TGI in assay [1] was determined as 44.2 µM; in assay [2], 63.8 µM; in assay [3] it was 33.4 µM; in [4], 44.9 µM; in [5], 35.9 µM; in [6], 38.5 µM. Besides, the TGI in assay [7] stood at 38.7 µM; in assay [10], 23.6 µM; in assay [8], 40.9 µM.
Regarding `COc1cc2c3c(ncc2c(OC)c1OC)-c1cc2c(cc1C3)OCO2`, the GI50 in assay [1] was above 100 µM; in assay [3], 54.1 µM; in [4], 27.6 µM; in assay [5], 13.3 µM; in assay [9], 0.0288 µM. Moreover, the TGI in assay [1] was above 100 µM; in assay [3], above 100 µM; in assay [4], above 100 µM; in [5], 37.5 µM; in assay [9] it was 4.26 µM.
For `CCN(CC)CCOc1c(OC)c(Br)cc2c(C)c(C(=O)OC)oc12`, the GI50 in assay [1] was 2.42 µM; in assay [2] it was 0.154 µM; in assay [3], 0.818 µM; in assay [4], 0.28 µM; in [5], 1.44 µM; in assay [7] it was 0.749 µM. In addition, the GI50 was 7.39 µM in assay [10] and 0.92 µM in [8]. Also, the TGI in [1] stood at 7.41 µM; in [2], 0.72 µM; in assay [3], 1.53 µM; in assay [4] it was 0.97 µM; in assay [5], 3.82 µM; in assay [7], 1.45 µM. Besides, the TGI is 14.6 µM in [10] and 2.36 µM in assay [8].
Regarding `COc1ccc(/C=C\c2cc(OC)c(OC)c(OC)c2)c(NS(=O)(=O)c2ccc(Cl)cc2)c1O`, the GI50 in assay [1] is 0.429 µM; in [2], 0.159 µM; in assay [3] it was 0.0511 µM; in assay [4], 0.287 µM; in assay [5] it was 0.292 µM; in assay [7], 0.153 µM. In addition, the GI50 was 0.0229 µM in assay [10], 0.708 µM in [8] and 0.0331 µM in [9]. Besides, the TGI in assay [1] is 16.4 µM; in [2] it was above 100 µM; in [3] it was 0.332 µM; in assay [4], 15.5 µM; in assay [5], 37 µM; in [7], 15.5 µM. The results for the TGI in assay [10], in [8] and in assay [9] were 0.422 µM, 46.5 µM and 0.265 µM, respectively.
`COC(=O)c1ccc(CN2C(=O)C(Cl)=C(Nc3ccc(OC)c(Cl)c3)C2=O)cc1`: the GI50 is above 50 µM in assay [2]; 31.6 µM in [3]; 7.26 µM in [4]; 43 µM in [5]; 5.66 µM in assay [7]; above 50 µM in [10]. The GI50 in assay [8] is 9.04 µM; in assay [9], 32 µM. Moreover, the TGI in assay [2] was above 50 µM; in assay [3] it was above 50 µM; in [4], 19.5 µM; in [5], above 50 µM; in assay [7], 26.7 µM; in [10], above 50 µM. Also, the TGI in [8] was 33.7 µM; in [9] it was above 50 µM.
Turning to `COC(=O)[C@H]1[C@H]2C[C@@H]3c4[nH]c5cc(OC)ccc5c4CCN3C[C@H]2C[C@@H](OC(=O)/C=C/c2cc(OC)c(OC)c(OC)c2)[C@@H]1OC`, the GI50 in assay [1] is 24.2 µM; in [2], 1.48 µM; in [3], 3.66 µM; in [4], 3.58 µM; in assay [5], 5.77 µM; in [6], 18.7 µM. Besides, the figures for the GI50 in assay [7], in [10] and in [8] were 3.31 µM, 4.23 µM and 4.56 µM, respectively. Also, the TGI in assay [1] was above 100 µM; in assay [2], 5.62 µM; in assay [3] it was 15.5 µM; in assay [4] it was 14.6 µM; in [5] it was 39.5 µM; in assay [6], 50.6 µM. In addition, the figures for the TGI in assay [7], in assay [10] and in assay [8] were 13.1 µM, 18.6 µM and above 100 µM, respectively.
For the molecule `C[C@]12CC[C@H]3[C@@H](CC[C@]4(O)C[C@@H](O)CC[C@]34CO)[C@@]1(O)CC[C@@H]2C1=CC(=O)OC1`, the TGI is 67.9 µM in [1]; above 36.7 µM in [2]; 5.08 µM in assay [3]; above 100 µM in [5]; 6.47 µM in assay [6]; 8.19 µM in assay [7]. The figures for the TGI in [10], in [8] and in assay [9] were 5.1 µM, 11 µM and 8.23 µM, respectively.
Consider `CN(C)CCCc1c2ccccc2nc2ccc(Cl)cc12`, for which the TGI in assay [2] amounted to 35.8 µM; in assay [3], 28.2 µM; in assay [4], 24.8 µM; in [5], 34.4 µM; in assay [6] it was 30.1 µM; in assay [7], 29.1 µM. Moreover, the TGI was 34.2 µM in [10], 26.1 µM in assay [8] and 40.3 µM in [9].
Regarding `Clc1ccc2c(c1)[nH]c1c2nc2sccn21`, the TGI in assay [1], in [2], in assay [3], in [4], in assay [6] and in assay [7] was above 100 µM in each case. For the same molecule, the TGI in assay [10], in assay [8] and in assay [9] was above 100 µM throughout.
On to `CC[C@H](Nc1nc(N)nc(C2CC2)c1C#N)c1nc2cccc(NCc3ccc(C(=O)NO)cc3)c2c(=O)n1-c1ccccc1`, for which the GI50 in assay [1] is 1.95 µM; in assay [2], 0.734 µM; in assay [5], 2.8 µM; in [6], 1.78 µM; in assay [10], 1.7 µM; in assay [8], 1.79 µM. The GI50 in [9] is 2.35 µM. For the same molecule, the TGI in assay [1] was 5 µM; in [2], above 100 µM; in [5], 9.51 µM; in [6] it was 4.61 µM; in [10], 3.69 µM; in assay [8] it was 5.39 µM. Besides, in assay [9], the TGI is 5.65 µM.
Take `Nc1nc(N)nc(CC(=O)O)n1`: the TGI in assay [2], in assay [3], in assay [4], in assay [5], in [6] and in assay [7] was above 100 µM each time. Moreover, the TGI in assay [10], in [8] and in assay [9] was above 100 µM throughout.
For `ClCc1ccc(C2OCCO2)cc1`, the TGI in [1] was 32 µM; in assay [2], above 69.7 µM; in assay [3] it was above 55.5 µM; in assay [4] it was 17.2 µM; in [6], 49.9 µM; in [7] it was 24.5 µM. Besides, the results for the TGI in [10], in assay [8] and in assay [9] were 45.3 µM, 35.3 µM and 12.5 µM, respectively.

The record behind these values is PubChem BioAssay (NCI).
